# Like-named read-outs stand apart in the source and are kept apart here.
# Experiments:
# [1] = system: DMS-53 cells; experiment: Cell growth/viability assay (Alamar Blue); type: cell-based, human; details: for effect on cell viability (in words): DMS-53, 48 hours, concentration range used
# Experimental: (§3) Cultures of NCI-H345, NCI-H146, DMS-53 cells (classical cell lines), and NCI-H82 cells (variant cell line) were treated with 0.05% trypsin, washed in phosphate buffered saline (PBS)/glycine and plated onto 96-well plates at 10^4 cells/well in medium for 24 hours to provide time for rectifying possible damage to membrane proteins from the trypsinization. […] Fluorescent readings were taken at periods representing 24, 48, and 72 hours of incubation with antagonist using a Synergy HT Multi-Detection Microplate Reader and excitation/emission wavelengths of 530 nm and 590 nm. Cell viability was evaluated as % vehicle control at the corresponding incubation time.
# [2] = system: NCI-H345 classical SCLC cells; experiment: Cell growth/viability assay (Alamar Blue)
# Experimental: Cultures of NCI-H345, NCI-H146, DMS-53 cells (classical cell lines), and NCI-H82 cells (variant cell line) were treated with 0.05% trypsin, washed in phosphate buffered saline (PBS)/glycine and plated onto 96-well plates at 10^4 cells/well in medium for 24 hours to provide time for rectifying possible damage to membrane proteins from the trypsinization. The wells were washed and incubated with PBS/glycine containing albumin (1.25 mg/mL) in the presence or absence of different concentrations (25 μM-800 μM) of either the NMDAR 1 antagonists, Memantine or MK-801; or the NMDAR2B antagonists Ifenprodil and Ro 25-6981 (binders to the polyamine site), or the NMDAR2B antagonists L-701,252 and L-701,324 (binders to the glycine site), or vehicle; and Alamar Blue (1:10 dilution following manufacturer's recommendation). Fluorescent readings were taken at periods representing 24, 48, and 72 hours of incubation with antagonist using a Synergy HT Multi-Detection Microplate Reader and excitation/emission wavelengths of 530 nm and 590 nm. Cell viability was evaluated as % vehicle control at the corresponding incubation time.
# This peptide domain is represented in that portion of the mRNA message sequenced by RT-PCR. For studies on cell proliferation, the IgGs of this antiserum were first isolated by precipitation with 50% saturated ammonium sulfate, and antibodies purified from these immunoglobulins by affinity chromatography using a column containing the peptide component of the above antigen coupled to SEPHAROSE (Friedmann, et al. (1994) supra; Keegan, et al. (2002) supra).
# [3] = system: NCI-H82 variant SCLC cells; experiment: Cell growth/viability assay (Alamar Blue); type: cell-based, human; details: for IC50: read-out: IC50, cell viability; for Cell viability reduced to: NCI-H82, 24, 48, and 72 hours incubation
# Experimental: as §3
# [4] = system: NCI H82 variant small-cell cancer cell xenografts; experiment: NCI H82 xenografts treated with ifenprodil; type: in vivo, nu/nu mice
# Experimental: Male nu/nu mice were injected subcutaneously with NCI H82 variant small-cell cancer cells (˜10^7 cells/mouse) representing recurrent disease, and tumors became obvious after 2-3 weeks, and commenced growing rapidly. Animals were divided into two groups.
# In another set of experiments, NCI H82 tumors were pretreated with cyclophosphamide for three days (single dose of 75 mg/kg body weight) before a single daily dose of i.p. ifenprodil (2.5 mg/kg) commenced.
# [5] = system: human LA-N-2 neuroblastoma cells; details: cited from earlier work
# [6] = system: human LA-N2 neuroblastoma cells; details: in the presence of glycine; cited from earlier work
# [7] = system: NCI-H146 cells; experiment: Cell growth/viability assay (Alamar Blue); type: cell-based, human
# Experimental: as §3
# [8] = system: MCF-7 breast cancer cells; experiment: Alamar Blue growth/proliferation study; type: cell-based, human; details: for effect on cell growth/proliferation (in words): MCF-7, in the presence of glycine over 24 hours
# [9] = system: LAN2 neuroblastoma cells; experiment: Alamar Blue growth study; type: cell-based, human; details: LAN2, in the presence of glycine over 24 hours
# Experimental: (§1) Results represent triplicate studies performed with Alamar Blue on LAN2 neuroblastoma, MCF-7 breast cancer, and SKBr3 breast cancer cells examining the growth influence of 1 mM glutamate in the presence of glycine over 24 hours.
# (§2) Results represent triplicate studies performed with Alamar Blue on LAN2 neuroblastoma, MCF-7 breast cancer, and SKBr3 breast cancer cells examining the growth influence of 100 mM Mg^++ in the presence of glycine over 24 hours.
# [10] = system: SKBr3 breast cancer cells; experiment: Alamar Blue growth/proliferation study; type: cell-based, human; details: for effect on cell growth/proliferation (in words): SKBr3, in the presence of glycine over 24 hours
# Experimental: as §1, §2
# [11] = Homo sapiens, NCI-H345, 48 h, read-out: IC50, cell viability
# [12] = Homo sapiens, NCI-H345, read-out: IC50, cell viability
# [13] = Homo sapiens, NCI-H82, 48 and 72 hours of incubation, Alamar Blue (figure legend)
# [14] = Homo sapiens, NCI-H82, at 48 hours
# [15] = 2.5 mg/kg once daily intraperitoneally
compound,measurement,setting,value
CC(C(O)c1ccc(O)cc1)N1CCC(Cc2ccccc2)CC1 (centres unmarked) [Ifenprodil],effect on cell viability (in words),[1],smaller decreases
same,Cell viability reduced to,[2],about 10 % of control
same,IC50,[2]; [11],~150 µM
same,IC50,[2]; [12],150 to 200 µM
same,IC50,[3]; [13],150 to 200 µM
same,IC50,[3]; [14],~150 µM
same,Cell viability reduced to,[3],about 10 % of control
same,time tumors maintained sizes of less than their original size,[4]; [15],~10 days
same,tumor size by 2 weeks of treatment,[4]; [15],< 2 times their original size
same,tumors first shrank to,[4]; [15],~80 % of their original size
same,tumor growth vs saline-treated control mice (in words),[4]; ifenprodil alone,inhibits the growth
same,body weight compared to saline-treated animals,[4]; over 8 days of drug treatment,no change in body weight
"O=c1[nH]c2cc(Cl)ccc2c(O)c1-c1cccc(Oc2ccccc2)c1 [L-701,324]",increase in cell viability to,"[2]; NCI-H345, at 48 hours",approximately 140 % of control
same,increase in cell viability to,"[3]; NCI-H82, at 48 hours",approximately 120 % of control
"NC(=O)c1ccccc1C(=O)N[C@@H](CCC(=O)O)C(=O)O [NPG, N-phthalamoyl-L-glutamic acid]",Cell cytotoxicity increased,[5]; incubation at 0.1 mM,28%
same,Cell cytotoxicity increased,[5]; incubation at 1 mM,46%
same,inward sodium current increased,[6],1.5 ×
CC(C(O)c1ccc(O)cc1)N1CCC(Cc2ccccc2)CC1 (centres unmarked) [Ro 25-6981],effect on cell viability (in words),[1]; listed as Ro 25-698,no clear effects
same,IC50,"[2]; read-out: IC50, cell viability, NCI-H345, at 48 hours",~200 µM
same,IC50,"[3]; NCI-H82, at 48 hours",~200 µM
same,effect on cell viability (in words),"[7]; NCI-H146, 48 hours, concentration range used",no clear effects
"N[C@@H](CCC(=O)O)C(=O)O [glutamate, L-glutamic acid]",effect on cell growth/proliferation (in words),[8],increased proliferation
same,effect on cell growth/proliferation (in words),[9],decreased cell growth
same,Cell cytotoxicity increased,[5]; incubation at 1 mM,27%
same,Cell cytotoxicity increased,[5]; incubation at 10 mM,37%
same,inward sodium current increased,[6],1.5 ×
same,effect on cell growth/proliferation (in words),[10],increased proliferation
[Mg+2] [magnesium],effect on cell growth/proliferation (in words),[8],significantly inhibited proliferation
same,effect on cell growth/proliferation (in words),[9],significantly inhibited proliferation
same,effect on cell growth/proliferation (in words),[10],significantly inhibited proliferation
CC12CC3CC(C)(C1)CC(N)(C3)C2 [memantine],IC50,"[1]; Homo sapiens, DMS-53, at 48 hours, read-out: IC50, cell viability",800 µM
same,Proliferation of MCF-7 Cells Percent Fluorescence Compared to Control,"[8]; 100 μM, 24 Hours",92.86 ± 6.08%
same,Proliferation of MCF-7 Cells Percent Fluorescence Compared to Control,"[8]; 100 μM, 48 Hours",89.98 ± 5.30%
same,Proliferation of MCF-7 Cells Percent Fluorescence Compared to Control,"[8]; 100 μM, 72 Hours",88.48 ± 4.02%
same,Proliferation of MCF-7 Cells Percent Fluorescence Compared to Control,"[8]; 200 μM, 24 Hours",73.51 ± 5.64%
same,Proliferation of MCF-7 Cells Percent Fluorescence Compared to Control,"[8]; 200 μM, 48 Hours",49.78 ± 6.85%
same,Proliferation of MCF-7 Cells Percent Fluorescence Compared to Control,"[8]; 200 μM, 72 Hours",46.62 ± 7.04%
same,Proliferation of MCF-7 Cells Percent Fluorescence Compared to Control,"[8]; 300 μM, 24 Hours",48.81 ± 5.18%
same,Proliferation of MCF-7 Cells Percent Fluorescence Compared to Control,"[8]; 300 μM, 48 Hours",22.33 ± 5.21%
same,Proliferation of MCF-7 Cells Percent Fluorescence Compared to Control,"[8]; 300 μM, 72 Hours",20.02 ± 4.97%
same,Proliferation of MCF-7 Cells Percent Fluorescence Compared to Control,"[8]; 400 μM, 24 Hours",39.62 ± 5.21%
same,Proliferation of MCF-7 Cells Percent Fluorescence Compared to Control,"[8]; 400 μM, 48 Hours",15.79 ± 4.79%
same,Proliferation of MCF-7 Cells Percent Fluorescence Compared to Control,"[8]; 400 μM, 72 Hours",14.38 ± 3.92%
same,Proliferation of MCF-7 Cells Percent Fluorescence Compared to Control,"[8]; 500 μM, 24 Hours",38.40 ± 2.98%
same,Proliferation of MCF-7 Cells Percent Fluorescence Compared to Control,"[8]; 500 μM, 48 Hours",14.60 ± 3.21%
same,Proliferation of MCF-7 Cells Percent Fluorescence Compared to Control,"[8]; 500 μM, 72 Hours",13.40 ± 3.29%
same,Proliferation of MCF-7 Cells Percent Fluorescence Compared to Control,"[8]; 600 μM, 24 Hours",39.22 ± 4.13%
same,Proliferation of MCF-7 Cells Percent Fluorescence Compared to Control,"[8]; 600 μM, 48 Hours",15.10 ± 7.28%
same,Proliferation of MCF-7 Cells Percent Fluorescence Compared to Control,"[8]; 600 μM, 72 Hours",13.66 ± 6.62%
same,Proliferation of MCF-7 Cells Percent Fluorescence Compared to Control,"[8]; 700 μM, 24 Hours",32.80 ± 2.19%
same,Proliferation of MCF-7 Cells Percent Fluorescence Compared to Control,"[8]; 700 μM, 48 Hours",12.51 ± 2.35%
same,Proliferation of MCF-7 Cells Percent Fluorescence Compared to Control,"[8]; 700 μM, 72 Hours",11.89 ± 2.62%
same,Proliferation of MCF-7 Cells Percent Fluorescence Compared to Control,"[8]; 800 μM, 24 Hours",32.82 ± 2.44%
same,Proliferation of MCF-7 Cells Percent Fluorescence Compared to Control,"[8]; 800 μM, 48 Hours",12.34 ± 2.01%
same,Proliferation of MCF-7 Cells Percent Fluorescence Compared to Control,"[8]; 800 μM, 72 Hours",11.82 ± 2.25%
same,Proliferation of MCF-7 Cells Percent Fluorescence Compared to Control,"[8]; 900 μM, 24 Hours",32.23 ± 2.13%
same,Proliferation of MCF-7 Cells Percent Fluorescence Compared to Control,"[8]; 900 μM, 48 Hours",12.03 ± 2.15%
same,Proliferation of MCF-7 Cells Percent Fluorescence Compared to Control,"[8]; 900 μM, 72 Hours",11.57 ± 2.41%
same,reduce proliferation by,"[8]; MCF-7, 0.3 mM, 48 and 72 hours",about 80%
same,effect on proliferation (in words),"[8]; MCF-7, NMDAR1 antagonist treatment",decreased the proliferation
same,Cell viability reduced to,[2],about 10 % of control
same,IC50,[2]; [11],80 to 130 µM
same,IC50,[2]; [12],80 to 100 µM
same,IC50,[3]; [13],80 to 100 µM
same,IC50,[3]; [14],80 to 130 µM
same,Cell viability reduced to,[3],about 10 % of control
same,IC50,"[7]; Homo sapiens, NCI-H146, at 48 hours, read-out: IC50, cell viability",400 µM
same,effect on proliferation (in words),"[10]; SKBr3, NMDAR1 antagonist treatment",decreased the proliferation
